Consider two substances from patent publication US20170114329A1, “SCALABLE ORGANOTYPIC MODELS OF TUMOR DORMANCY” (THE REGENTS OF THE UNIVERSITY OF CALIFORNIA, priority 2013, published 2017).

Common to all, as to assay type: cell-based, human
Series [1] has as its system E4-EC microvascular networks. Nature of the series: Neovascular tip number in microvascular niche cultures. Particulars: shNotch1 E4-EC vs shCtrl, day 7. On the procedure:
(§1) Microvascular niche cultures were generated with modifications to a previously described protocol, described in Evensen, L., et al. Mural cell associated VEGF is required for organotypic vessel formation. PLoS One 4, e5798 (2009), hereby incorporated by reference in its entirety. LFs or MSCs were seeded alone at a density of 5×10^4 cells/well in 96-well culture plates or with mCherry-E4-ECs at a 5:1 ratio to generate lung-like or BoMa-like microvascular niches, respectively. Cells were suspended in EGM-2 at a concentration 5×10^4 cells/100 μl (stroma only) or 6×10^4 cells/100 μl (stroma+ECs). After depositing 100 μl of cellular suspension per well of a 96-well plate, plates were left undisturbed on a flat surface for 20 min to allow even cell seeding prior to incubation.
Network properties were counted manually using the “cell counter” application in ImageJ.
E4ORF1-HUVECs were infected at 5 MOI with custom-made lentiviruses (Sigma) containing shRNA targeting human Notch1 in a pLKO.1-puro-CMV-TagRFP vector. Empty vector was used as a control (shCtrl).

The next series relates to Notch1. Description: Notch1 knockdown in E4ORF1-HUVEC, immunoblot. Particulars: normalized to Lamin A/C. An excerpt:
E4ORF1-HUVECs were infected at 5 MOI with custom-made lentiviruses (Sigma) containing shRNA targeting human Notch1 in a pLKO.1-puro-CMV-TagRFP vector. Empty vector was used as a control (shCtrl). Sequences for shRNA were as follows:
shNotch1-E4-ECs and shCtrl-E4-ECs were lysed in 2% SDS/PBS. Twenty μg of each lysate was then separated on a Tris-Glycine 4-20% gel. Notch1 was probed with a rabbit polyclonal antibody (AbCam ab27526, 1:500). The blot was stripped and re-probed with a rabbit polyclonal antibody to the nuclear membrane protein Lamin A/C, used here as a loading control (Santa Cruz Biotechnology sc-20681, 1:2000).
A general note: In western blotting, separated proteins are transferred to a membrane and probed.

A further series has as its system T4-2 cells. Description: Growth of YFP T4-2 breast cancer cells on lung stroma (LF) cultures. The settings on record: add-back to T4-2 cells plated on lung stroma without ECs; normalized to vehicle condition. Here is the method:
as §1
After 7 days, YFP tumor cells were suspended in unsupplemented DMEM/F12 (800 cells/ml). YFP tumor cells were seeded (100 μl/well) after washing cultures thrice with PBS. […]
A macro was written using NIH ImageJ open source software to remove bias from data quantification. […] The total area fraction of the 6×6 tiled image occupied by YFP cells was then calculated. […] For each image, the measured area fraction at day 10 was normalized by the corresponding day 0 value in order to account for any small variations in seeding density from well-to-well.

Entries after “also recorded” stand apart in the source; their conditions may differ.

As for “sh8393: shRNA targeting human Notch1, SEQ ID NO: 1, in pLKO.1-puro-CMV-TagRFP lentiviral vector (CCGGCTTTGTTTCAGGTTCAGTATTCTCGAGAATACTGAACCTGAAACAAAGTTTTT)”, the “number of endothelial tips” value in series [1] is recorded as “significant reduction in the number of endothelial tips”. In the series with Notch1, the “endothelial cell Notch1 expression at the protein level” value is listed as “significantly reduced endothelial cell Notch1 expression”. As for thrombospondin-1 [TSP-1], the “tumor cell growth (normalized tumor cell area fraction)” value with T4-2 cells was “significant reduction in tumor cell growth; also recorded: sufficient to suppress BCC growth on lung stroma”.
